Tests used:
Assay in all cases: relative viability (nuclei count vs DMSO), 5 days (fraction); higher = more cells survive
LK-2 = system: LK-2
Outline: (§1)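 After 5 days of treatment, lung cancer cells in 1536-well plates were fixed and stained in a single step (final 0.05% Triton X-100, 1% formaldehyde, 1 ug/ml Hoechst) and their nuclei counted on 4× images. Treatment had been applied by pin tool the day after seeding as one drug alone or as a fixed anchor-drug dose with five library-drug doses (not always all listed) in √10 steps. Relative viability is the nuclei count of treated wells divided by that of vehicle wells, and values are medians of duplicate plates.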

RERF-LC-KJ = system: RERF-LC-KJ
Outline: as §1

NCI-H1563 = system: NCI-H1563
Outline: as §1

HCC-827 = system: HCC-827
Outline: as §1

PC-3 [JPC-3] = system: PC-3 [JPC-3]
Outline: as §1

NCI-H520 = system: NCI-H520
Outline: as §1

NCI-H1437 = system: NCI-H1437
Outline: as §1

EKVX = system: EKVX
Outline: as §1

CAL-12T = system: CAL-12T
Outline: as §1

NCI-H1650 = system: NCI-H1650
Outline: as §1

HCC-15 = system: HCC-15
Outline: as §1

PC-14 = system: PC-14
Outline: as §1

NCI-H1734 = system: NCI-H1734
Outline: as §1

COR-L23 = system: COR-L23
Outline: as §1

SW 1573 = system: SW 1573
Outline: as §1

NCI-H1355 = system: NCI-H1355
Outline: as §1

NCI-H661 = system: NCI-H661
Outline: as §1

NCI-H322M = system: NCI-H322M
Outline: as §1

H3255 = system: H3255
Outline: as §1

ABC-1 = system: ABC-1
Outline: as §1

NCI-H2405 = system: NCI-H2405
Outline: as §1

NCI-H2228 = system: NCI-H2228
Outline: as §1

`Oc1nc(-c2ccc(C(F)(F)F)cc2)nc2c1CSCC2` [XAV939] + CS(=O)(=O)N1CCN(Cc2cc3nc(-c4cccc5[nH]ncc45)nc(N4CCOCC4)c3s2)CC1 [Pictilisib] (partner 1 µM) showed a relative viability (LK-2; first compound 0.08 µM) of 0.565, a relative viability (LK-2; first compound 0.253 µM) of 0.505 and a relative viability (LK-2; first compound 0.8 µM) of 0.643. For the same compound, the relative viability (LK-2; first compound 2.53 µM) was 0.607, the relative viability (RERF-LC-KJ; first compound 0.08 µM) was 0.61 and the relative viability (RERF-LC-KJ; first compound 0.253 µM) was 0.457. It also gave a relative viability (RERF-LC-KJ; first compound 0.8 µM) of 0.419, a relative viability (RERF-LC-KJ; first compound 2.53 µM) of 0.366 and a relative viability (NCI-H1563; first compound 0.08 µM) of 0.645. It also gave a relative viability (NCI-H1563; first compound 0.253 µM) of 0.656, a relative viability (NCI-H1563; first compound 0.8 µM) of 0.605 and a relative viability (NCI-H1563; first compound 2.53 µM) of 0.611. The relative viability (HCC-827; first compound 0.08 µM) was 1.05, the relative viability (HCC-827; first compound 0.253 µM) was 1.02 and the relative viability (HCC-827; first compound 0.8 µM) was 1.24. For the same compound, the relative viability (HCC-827; first compound 2.53 µM) was 1.21, the relative viability (PC-3 [JPC-3]; first compound 0.08 µM) was 0.681 and the relative viability (PC-3 [JPC-3]; first compound 0.253 µM) was 0.602. For the same compound, the relative viability (PC-3 [JPC-3]; first compound 0.8 µM) was 0.663, the relative viability (PC-3 [JPC-3]; first compound 2.53 µM) was 0.697 and the relative viability (NCI-H520; first compound 0.08 µM) was 0.24. The relative viability (NCI-H520; first compound 0.253 µM) was 0.251, the relative viability (NCI-H520; first compound 0.8 µM) was 0.236 and the relative viability (NCI-H520; first compound 2.53 µM) was 0.227. It also gave a relative viability (NCI-H1437; first compound 0.08 µM) of 0.436, a relative viability (NCI-H1437; first compound 0.253 µM) of 0.44 and a relative viability (NCI-H1437; first compound 0.8 µM) of 0.561. It also gave a relative viability (NCI-H1437; first compound 2.53 µM) of 0.234, a relative viability (EKVX; first compound 0.08 µM) of 0.413 and a relative viability (EKVX; first compound 0.253 µM) of 0.301. For the same compound, the relative viability (EKVX; first compound 0.8 µM) was 0.377, the relative viability (EKVX; first compound 2.53 µM) was 0.24 and the relative viability (CAL-12T; first compound 0.08 µM) was 0.433. For the same compound, the relative viability (CAL-12T; first compound 0.253 µM) was 0.33, the relative viability (CAL-12T; first compound 0.8 µM) was 0.373 and the relative viability (CAL-12T; first compound 2.53 µM) was 0.34. For the same compound, the relative viability (NCI-H1650; first compound 0.08 µM) was 0.587, the relative viability (NCI-H1650; first compound 0.253 µM) was 0.615 and the relative viability (NCI-H1650; first compound 0.8 µM) was 0.49. It also gave a relative viability (NCI-H1650; first compound 2.53 µM) of 0.394, a relative viability (HCC-15; first compound 0.08 µM) of 0.858 and a relative viability (HCC-15; first compound 0.253 µM) of 0.632. For the same compound, the relative viability (HCC-15; first compound 0.8 µM) was 0.736, the relative viability (HCC-15; first compound 2.53 µM) was 0.755 and the relative viability (PC-14; first compound 0.08 µM) was 0.859. It also gave a relative viability (PC-14; first compound 0.253 µM) of 0.662, a relative viability (PC-14; first compound 0.8 µM) of 0.767 and a relative viability (PC-14; first compound 2.53 µM) of 0.386. The relative viability (NCI-H1734; first compound 0.08 µM) was 0.488, the relative viability (NCI-H1734; first compound 0.253 µM) was 0.418 and the relative viability (NCI-H1734; first compound 0.8 µM) was 0.371. It also gave a relative viability (NCI-H1734; first compound 2.53 µM) of 0.383, a relative viability (COR-L23; first compound 0.08 µM) of 1.05 and a relative viability (COR-L23; first compound 0.253 µM) of 0.768. The relative viability (COR-L23; first compound 0.8 µM) was 0.757, the relative viability (COR-L23; first compound 2.53 µM) was 0.564 and the relative viability (SW 1573; first compound 0.08 µM) was 0.542. For the same compound, the relative viability (SW 1573; first compound 0.253 µM) was 0.403, the relative viability (SW 1573; first compound 0.8 µM) was 0.357 and the relative viability (SW 1573; first compound 2.53 µM) was 0.392. The relative viability (NCI-H1355; first compound 0.08 µM) was 0.414, the relative viability (NCI-H1355; first compound 0.253 µM) was 0.374 and the relative viability (NCI-H1355; first compound 0.8 µM) was 0.387. It also gave a relative viability (NCI-H1355; first compound 2.53 µM) of 0.236, a relative viability (NCI-H661; first compound 0.08 µM) of 0.477 and a relative viability (NCI-H661; first compound 0.253 µM) of 0.378. It also gave a relative viability (NCI-H661; first compound 0.8 µM) of 0.329, a relative viability (NCI-H661; first compound 2.53 µM) of 0.267 and a relative viability (NCI-H322M; first compound 0.08 µM) of 0.572. For the same compound, the relative viability (NCI-H322M; first compound 0.253 µM) was 0.491, the relative viability (NCI-H322M; first compound 0.8 µM) was 0.541 and the relative viability (NCI-H322M; first compound 2.53 µM) was 0.439. It also gave a relative viability (H3255; first compound 0.08 µM) of 0.486, a relative viability (H3255; first compound 0.253 µM) of 0.374 and a relative viability (H3255; first compound 0.8 µM) of 0.499. For the same compound, the relative viability (H3255; first compound 2.53 µM) was 0.288, the relative viability (ABC-1; first compound 0.08 µM) was 0.759 and the relative viability (ABC-1; first compound 0.253 µM) was 0.581. It also gave a relative viability (ABC-1; first compound 0.8 µM) of 0.602, a relative viability (ABC-1; first compound 2.53 µM) of 0.348 and a relative viability (NCI-H2405; first compound 0.08 µM) of 0.502. For the same compound, the relative viability (NCI-H2405; first compound 0.253 µM) was 0.526, the relative viability (NCI-H2405; first compound 0.8 µM) was 0.416 and the relative viability (NCI-H2405; first compound 2.53 µM) was 0.378. It also gave a relative viability (NCI-H2228; first compound 0.08 µM) of 0.247, a relative viability (NCI-H2228; first compound 0.253 µM) of 0.304 and a relative viability (NCI-H2228; first compound 0.8 µM) of 0.253. The relative viability (NCI-H2228; first compound 2.53 µM) was 0.382.
